Data on 24 compounds can be found in PubChem BioAssay AID192 (DTP/NCI, 2004).

Where “and” joins values, the source holds several entries; their conditions need not be identical. Identical values can stand only once. Inconclusive results and toxic doses are left out. Square brackets hold non-standard residues; d marks the D form. Peptide text beside a SMILES is read from it. ξ: configuration not given here. ξE = NC(CCC(=O)O)C(=O)O

The test system of this assay is BDF1 mice, B16 melanoma ip, median survival T/C. Kind of assay: NCI In Vivo Anticancer Drug Screen. Data for tumor model B16 Melanoma (intraperitoneal) in B6D2F1 (BDF1) mice. As to conditions: endpoint: median survival time, higher = longer survival. The gist of the method:
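Values are ratios of treated (T) to vehicle-control (C) measurements of survival or tumor size in tumor-bearing mice.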

[1] abbreviates: dose: 100.0 mg/kg/injection, schedule: Q04DX003 (ip), vehicle: saline with Tween-80.
The mark [2] stands for this setting: dose: 200.0 mg/kg/injection, schedule: Q04DX003 (ip), vehicle: saline with Tween-80.
Setting [3] is: dose: 100.0 mg/kg/injection, schedule: Q01DX009 (ip), vehicle: Klucel (hydroxypropylcellulose) (HPC).
Where [4] appears, read: dose: 200.0 mg/kg/injection, schedule: Q01DX009 (ip), vehicle: Klucel (hydroxypropylcellulose) (HPC).
Setting [5] is: dose: 400.0 mg/kg/injection, schedule: Q01DX009 (ip), vehicle: Klucel (hydroxypropylcellulose) (HPC).
Setting [6] is: dose: 100.0 mg/kg/injection, schedule: Q01DX009 (ip), vehicle: saline.
Where [7] appears, read: dose: 200.0 mg/kg/injection, schedule: Q01DX009 (ip), vehicle: saline.
The mark [8] stands for this setting: dose: 400.0 mg/kg/injection, schedule: Q01DX009 (ip), vehicle: saline.
[9] abbreviates: dose: 50.0 mg/kg/injection, schedule: Q01DX009 (ip), vehicle: saline with Tween-80.
[10] abbreviates: dose: 100.0 mg/kg/injection, schedule: Q01DX009 (ip), vehicle: saline with Tween-80.
Where [11] appears, read: dose: 200.0 mg/kg/injection, schedule: Q01DX009 (ip), vehicle: saline with Tween-80.
Setting [12] is: dose: 12.5 mg/kg/injection, schedule: Q01DX009 (ip), vehicle: saline with Tween-80.
[13] abbreviates: dose: 25.0 mg/kg/injection, schedule: Q01DX009 (ip), vehicle: saline with Tween-80.
Setting [14] is: dose: 25.0 mg/kg/injection, schedule: Q01DX009 (ip), vehicle: Klucel (hydroxypropylcellulose) (HPC).
[15] abbreviates: dose: 50.0 mg/kg/injection, schedule: Q01DX009 (ip), vehicle: Klucel (hydroxypropylcellulose) (HPC).
Setting [16] is: dose: 1.2 mg/kg/injection, schedule: Q01DX009 (ip), vehicle: saline.
The mark [17] stands for this setting: dose: 100.0 mg/kg/injection, schedule: Q04DX003 (ip), vehicle: Klucel (hydroxypropylcellulose) (HPC).
The mark [18] stands for this setting: dose: 200.0 mg/kg/injection, schedule: Q04DX003 (ip), vehicle: Klucel (hydroxypropylcellulose) (HPC).
Where [19] appears, read: dose: 400.0 mg/kg/injection, schedule: Q04DX003 (ip), vehicle: Klucel (hydroxypropylcellulose) (HPC).

Consider `CCCCC(CC)COP(OCC(CC)CCCC)OCC(CC)CCCC` (stereo not given), for which the T/C is 93 % of control under setting [1] and 86 % of control under setting [2].

As to `CC1OC(n2ccc(NC(=O)c3ccc(NC(=O)C(C)(N)CO)cc3)nc2=O)CC(O)C1OC1OC(C)C(N(C)C)C(O)C1O` (stereo not given), the T/C reads like this: (dose: 2.5 mg/kg/injection, schedule: Q01DX009 (ip), vehicle: Klucel (hydroxypropylcellulose) (HPC)) 117 % of control; (dose: 5.0 mg/kg/injection, schedule: Q01DX009 (ip), vehicle: Klucel (hydroxypropylcellulose) (HPC)) 102 % of control; (dose: 10.0 mg/kg/injection, schedule: Q01DX009 (ip), vehicle: Klucel (hydroxypropylcellulose) (HPC)) 103 % of control.

Turning to `C=CCNC(=S)Nc1cc(Cl)ccc1OC`, the T/C reads like this: under setting [3], 93 % of control; under setting [4], 93 % of control; under setting [5], 93 % of control.

As to `C#CCOCC(CCl)OC(N)=O` (stereo not given), the T/C is, setting by setting: (dose: 50.0 mg/kg/injection, schedule: Q04DX003 (ip), vehicle: saline with Tween-80) 111 % of control; under setting [1], 105 % of control; under setting [2], 108 % of control.

Consider `CCCCn1c(=S)[nH]c2ccccc2c1=O`, for which the T/C runs as follows: under setting [3], 98 % of control; under setting [4], 96 % of control; under setting [5], 98 % of control.

With `Cc1ccc2oc(-c3ccccc3)c(O)c(=O)c2c1`, the T/C by setting is: under setting [6], 106 % of control; under setting [7], 108 % of control; under setting [8], 104 % of control.

As for `COc1cc([N+](=O)[O-])ccc1NC(=O)Nc1ccc(Cl)cc1`, the T/C reads like this: under setting [9], 93 % of control; under setting [10], 91 % of control; under setting [11], 101 % of control.

Take `Oc1ccccc1N=Cc1ccc(C=Nc2ccccc2O)cc1`: the T/C is 88 % of control (dose: 133.0 mg/kg/injection, schedule: Q01DX009 (ip), vehicle: gum acacia) and 99 % of control (dose: 200.0 mg/kg/injection, schedule: Q01DX009 (ip), vehicle: gum acacia).

For the compound `O=CC=O`, the T/C is 104 % of control under setting [12], 106 % of control under setting [13], 108 % of control under setting [9] and 123 % of control under setting [10].

For `O=[N+]([O-])c1ccc2ccccc2c1I`, the T/C runs as follows: under setting [10], 101 % of control; under setting [11], 103 % of control; (dose: 400.0 mg/kg/injection, schedule: Q01DX009 (ip), vehicle: saline with Tween-80) 99 % of control.

On to `O=C1C=C(Nc2ccccc2)c2ccccc2C1=O`, for which the T/C (dose: 12.5 mg/kg/injection, schedule: Q01DX009 (ip), vehicle: Klucel (hydroxypropylcellulose) (HPC)) is 93 % of control; the T/C under setting [14] is 105 % of control; the T/C under setting [15] was 88 % of control; the T/C under setting [3] is 87 % of control.

As for `O=C1NC2(CCCCC2)C(=O)N1CCN(CCCl)CCCl`, the T/C reads like this: (dose: 0.75 mg/kg/injection, schedule: Q01DX009 (ip), vehicle: saline) 105 % of control and 107 % of control; (dose: 0.78 mg/kg/injection, schedule: Q01DX009 (ip), vehicle: saline) 95 % of control and 109 % of control and 263 % of control; (dose: 3.0 mg/kg/injection, schedule: Q01DX009 (ip), vehicle: saline) 107 % of control; (dose: 6.0 mg/kg/injection, schedule: Q01DX009 (ip), vehicle: saline with Tween-80) 168 % of control and 191 % of control; (dose: 6.25 mg/kg/injection, schedule: Q01DX009 (ip), vehicle: saline) 152 % of control and 176 % of control.

As to `COc1ccc(CCN2CC(=O)NC(=O)C2)cc1OC`, the T/C under setting [14] was 97 % of control; the T/C under setting [15] was 91 % of control; the T/C under setting [3] is 88 % of control; the T/C under setting [4] was 94 % of control; the T/C under setting [5] is 91 % of control.

As for `CCC[N+](CCC)=c1ccc2nc3c(C)cc(N(CC)CC)cc3sc-2c1`, the T/C was 102 % of control (dose: 0.15 mg/kg/injection, schedule: Q01DX009 (ip), vehicle: saline); 102 % of control (dose: 0.3 mg/kg/injection, schedule: Q01DX009 (ip), vehicle: saline); 92 % of control (dose: 0.6 mg/kg/injection, schedule: Q01DX009 (ip), vehicle: saline with Tween-80); 102 % of control (dose: 0.6 mg/kg/injection, schedule: Q01DX009 (ip), vehicle: saline); 105 % of control under setting [16].

Regarding `NCC(=O)NCC(=O)NC(CCC(=O)O)C(=O)O` (stereo not drawn) (H-Gly-Gly-[ξE]-OH), the T/C is 101 % of control (dose: 50.0 mg/kg/injection, schedule: Q01DX009 (ip), vehicle: saline); 97 % of control under setting [6]; 94 % of control under setting [7]; 94 % of control under setting [8].

Turning to `O=C(/C(=C\c1ccccc1)CN1CCOCC1)c1ccc(Br)cc1`, the T/C was 91 % of control under setting [12], 94 % of control under setting [13], 94 % of control under setting [9] and 89 % of control under setting [10].

As for `C1CC[N-]CC1.CC(=N\O)/C(C)=N/O.CC(=N\O)/C(C)=N/O.[CH3-].[Co+2]`, the T/C reads like this: under setting [14], 105 % of control; under setting [15], 91 % of control; under setting [3], 88 % of control.

Turning to `COC1CC(OC2CCC3(C)C(CCC45OC46CCC(C4=CC(=O)OC4)C6(C)CCC35)C2)OC(C)C1O` (stereo not given), the T/C was 98 % of control under setting [16]; 101 % of control (dose: 1.8 mg/kg/injection, schedule: Q01DX009 (ip), vehicle: saline); 87 % of control (dose: 2.75 mg/kg/injection, schedule: Q01DX009 (ip), vehicle: saline); 96 % of control (dose: 12.5 mg/kg/injection, schedule: Q01DX009 (ip), vehicle: saline); 89 % of control (dose: 25.0 mg/kg/injection, schedule: Q01DX009 (ip), vehicle: saline).

For the compound `CCOC(=O)C(CC(C)C)NC(=O)C(Cc1ccc(N(CCCl)CCCl)cc1)NC(C)=O` (stereo not given), the T/C runs as follows: (dose: 1.0 mg/kg/injection, schedule: Q01DX009 (ip), vehicle: saline with Tween-80) 106 % of control; (dose: 2.0 mg/kg/injection, schedule: Q01DX009 (ip), vehicle: saline with Tween-80) 113 % of control; (dose: 4.0 mg/kg/injection, schedule: Q01DX009 (ip), vehicle: saline with Tween-80) 106 % of control; (dose: 8.0 mg/kg/injection, schedule: Q01DX009 (ip), vehicle: saline with Tween-80) 119 % of control; (dose: 8.0 mg/kg/injection, schedule: Q01DX009 (ip), vehicle: saline) 105 % of control; (dose: 16.0 mg/kg/injection, schedule: Q01DX009 (ip), vehicle: saline) 116 % of control.

With `Nc1ccc(F)cc1[N+](=O)[O-]`, the T/C (dose: 75.0 mg/kg/injection, schedule: Q01DX009 (ip), vehicle: Klucel (hydroxypropylcellulose) (HPC)) is 122 % of control; the T/C (dose: 150.0 mg/kg/injection, schedule: Q01DX009 (ip), vehicle: Klucel (hydroxypropylcellulose) (HPC)) was 105 % of control; the T/C (dose: 300.0 mg/kg/injection, schedule: Q01DX009 (ip), vehicle: Klucel (hydroxypropylcellulose) (HPC)) was 102 % of control.

As for `COC(=O)c1ccc[n+](CCc2c[nH]c3ccccc23)c1`, the T/C reads like this: under setting [12], 108 % of control; under setting [13], 99 % of control; under setting [9], 97 % of control.

For `COc1cccc(C)c1[N+](=O)[O-]`, the T/C was 92 % of control (dose: 75.0 mg/kg/injection, schedule: Q04DX003 (ip), vehicle: Klucel (hydroxypropylcellulose) (HPC)); 109 % of control (dose: 150.0 mg/kg/injection, schedule: Q04DX003 (ip), vehicle: Klucel (hydroxypropylcellulose) (HPC)); 90 % of control (dose: 300.0 mg/kg/injection, schedule: Q04DX003 (ip), vehicle: Klucel (hydroxypropylcellulose) (HPC)).

Consider `CCc1ccccc1NC(=O)NC(C)C`, for which the T/C is 100 % of control under setting [17], 110 % of control under setting [18] and 100 % of control under setting [19].

Take `O=C(COc1ccc(Cl)cc1)Nc1ccccc1C(F)(F)F`: the T/C under setting [17] is 90 % of control, the T/C under setting [18] was 92 % of control and the T/C under setting [19] is 90 % of control.
